This experiment has as its target T1, CobNST (Rhodobacter capsulatus, UniProt D5AV09).
T1 construct: gene cobN; recombinant from E. coli BL21(DE3) pLysS; N-terminal 6xHis-tag and thrombin site on CobN (pET14b) and CobS (pET3a), CobT untagged, CobST copurified; 13 subunits; with Aerobic cobaltochelatase subunit CobS; Aerobic cobaltochelatase subunit CobT
T1 sequence (D5AV09 1-1085): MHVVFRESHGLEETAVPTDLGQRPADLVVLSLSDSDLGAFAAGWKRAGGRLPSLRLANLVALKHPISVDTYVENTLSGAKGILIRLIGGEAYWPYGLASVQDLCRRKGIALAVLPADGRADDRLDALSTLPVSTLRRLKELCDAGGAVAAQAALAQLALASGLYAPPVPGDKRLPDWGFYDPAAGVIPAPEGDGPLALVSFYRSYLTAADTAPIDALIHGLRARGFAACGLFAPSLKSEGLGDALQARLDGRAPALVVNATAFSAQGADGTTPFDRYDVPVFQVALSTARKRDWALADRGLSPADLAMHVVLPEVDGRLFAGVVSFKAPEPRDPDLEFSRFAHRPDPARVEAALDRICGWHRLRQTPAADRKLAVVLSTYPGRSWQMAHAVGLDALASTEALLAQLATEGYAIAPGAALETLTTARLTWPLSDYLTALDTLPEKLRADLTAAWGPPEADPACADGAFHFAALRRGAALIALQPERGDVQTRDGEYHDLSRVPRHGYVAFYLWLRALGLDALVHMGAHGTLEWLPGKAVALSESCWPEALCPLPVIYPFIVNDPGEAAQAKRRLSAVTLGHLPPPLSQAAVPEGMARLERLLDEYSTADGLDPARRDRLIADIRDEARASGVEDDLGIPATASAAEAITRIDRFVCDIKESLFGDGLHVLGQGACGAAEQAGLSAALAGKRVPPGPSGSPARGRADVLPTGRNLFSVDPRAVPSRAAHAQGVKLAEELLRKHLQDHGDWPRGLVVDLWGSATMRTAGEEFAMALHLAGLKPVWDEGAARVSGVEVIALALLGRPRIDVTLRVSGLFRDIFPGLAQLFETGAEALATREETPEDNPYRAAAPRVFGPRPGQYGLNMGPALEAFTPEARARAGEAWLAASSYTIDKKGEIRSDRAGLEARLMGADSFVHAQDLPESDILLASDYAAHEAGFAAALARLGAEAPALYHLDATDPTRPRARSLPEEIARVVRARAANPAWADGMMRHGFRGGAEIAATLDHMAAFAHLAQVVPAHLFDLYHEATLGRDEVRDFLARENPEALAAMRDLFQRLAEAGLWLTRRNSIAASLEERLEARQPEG
T1 sequence (D5AQ14 1-324 partner): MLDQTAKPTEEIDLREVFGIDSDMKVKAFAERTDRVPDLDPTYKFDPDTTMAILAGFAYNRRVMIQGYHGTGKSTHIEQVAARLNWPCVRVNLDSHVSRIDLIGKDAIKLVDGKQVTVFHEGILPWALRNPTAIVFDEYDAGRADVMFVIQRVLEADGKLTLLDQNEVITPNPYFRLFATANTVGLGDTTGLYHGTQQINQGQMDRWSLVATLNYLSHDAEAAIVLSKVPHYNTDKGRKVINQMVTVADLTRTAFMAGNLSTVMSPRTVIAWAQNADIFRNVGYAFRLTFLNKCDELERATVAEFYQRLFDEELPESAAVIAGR
T1 sequence (D5AQ13 1-624 partner): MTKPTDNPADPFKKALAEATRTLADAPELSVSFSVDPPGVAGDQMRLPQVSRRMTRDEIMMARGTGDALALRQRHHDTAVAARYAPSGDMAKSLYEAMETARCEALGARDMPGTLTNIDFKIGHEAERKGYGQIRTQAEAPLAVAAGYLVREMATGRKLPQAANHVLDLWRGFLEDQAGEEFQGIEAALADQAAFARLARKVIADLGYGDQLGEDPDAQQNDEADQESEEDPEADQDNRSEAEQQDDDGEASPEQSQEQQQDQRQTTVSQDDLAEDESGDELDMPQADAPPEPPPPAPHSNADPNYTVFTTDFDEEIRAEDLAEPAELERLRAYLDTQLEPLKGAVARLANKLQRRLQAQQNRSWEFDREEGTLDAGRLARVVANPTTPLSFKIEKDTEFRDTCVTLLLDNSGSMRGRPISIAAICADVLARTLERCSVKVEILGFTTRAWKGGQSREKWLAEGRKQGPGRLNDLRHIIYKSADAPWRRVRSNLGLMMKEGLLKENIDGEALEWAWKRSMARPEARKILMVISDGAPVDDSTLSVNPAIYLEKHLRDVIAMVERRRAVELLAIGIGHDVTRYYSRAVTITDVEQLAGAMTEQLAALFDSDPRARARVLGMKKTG
Nature of the experiment: UV-visible absorbance at […] nm, Co(II) chelation. The class given is biochemical. To be noted: 10 uM HBAD, 100 uM total Co(II), 10 mM MgCl2, 5 mM ATP, 50 mM Hepes pH 7.0, 100 mM NaCl, 20-25 C, anaerobic.

Regarding `C/C1=C2N=C(/C=C3\N/C(=C(/C)C4=N[C@@](C)([C@@H]5N=C1[C@](C)(CCC(=O)O)[C@H]5CC(=O)O)[C@@](C)(CC(N)=O)[C@@H]4CCC(=O)O)[C@@](C)(CC(N)=O)[C@@H]3CCC(=O)O)C(C)(C)[C@@H]/2CCC(=O)O` [HBAD, hydrogenobyrinic acid a,c-diamide], the “UV-visible absorbance at 330 nm, Co(II) chelation” value is “Metalation of HBAD to form cobyrinic acid a,c-diamide (CBAD) was followed by changes in the UV–visible absorbance”.

The values above are taken from PMC10206600, “Two Distinct Thermodynamic Gradients for Cellular Metalation of Vitamin B12” (JACS Au, 2023).
